Data reported in patent US20140051729A1, “COMPOSITIONS AND METHODS FOR TREATING DEGENERATIVE MUSCLE CONDITIONS” (University of Washington, priority 2011, published 2014).

What was measured:
S1P level = experiment: S1P levels in tissues of CTX injured mdx mice after IP THI; type: in vivo, mouse; conditions: 5-month-old mdx males, IP THI 5 times during 3 days, day 4 post CTX, vs vehicle
Experimental: (a) Experimental schematic of THI (0.075 μg/day) and PBS (vehicle) treated mdx mice injected intraperitoneally (IP) twice daily for the first 72 hours following cardiotoxin (CTX) injury. Muscles, spleen or plasma from 5MO (n=6) mdx males were harvested for S1P and creatin kinase (CK) analysis at day 4 post CTX injury. Muscles from aged mdx mice (n=7 THI treated: 3 11MO females, 4 16MO males. n=6 vehicle: 3 11MO females, 3 16MO males) were harvested for histopathology analysis 18 days post CTX injury. […] (d) Quantification of Picrosirius Red staining indicates reduced fibrosis following injury in both Tibialis Anterior (TA) and Quadriceps (Quads) muscles in mice treated with THI. […] Scale bars=50 μm. (f) Oil Red-O staining depicts fat deposits (arrows) over the entire cross-sectional area of THI treated and control injured TAs. […] Error bars represent SEM.
The effects of THI in the dystrophic mdx mouse model were studied. […] THI was administered intraperitoneally (IP) to three groups of mdx mice. Right tibialis anterior (TA) and quadriceps muscles were uninjured, while left counterparts were injured using CTX, a well characterized model of acute injury where initial muscle destruction is followed by a rapid myogenic response. […] The effects of THI administration on the plasma creatine kinase (CK) activity level was also measured.

SPL = target: T1, SPL (Mus musculus, UniProt Q8R0X7); conditions: Schwab et al., Science 2005; cited from earlier work
T1 construct: host or cells: mice (in vivo)
T1 sequence (Q8R0X7 1-568): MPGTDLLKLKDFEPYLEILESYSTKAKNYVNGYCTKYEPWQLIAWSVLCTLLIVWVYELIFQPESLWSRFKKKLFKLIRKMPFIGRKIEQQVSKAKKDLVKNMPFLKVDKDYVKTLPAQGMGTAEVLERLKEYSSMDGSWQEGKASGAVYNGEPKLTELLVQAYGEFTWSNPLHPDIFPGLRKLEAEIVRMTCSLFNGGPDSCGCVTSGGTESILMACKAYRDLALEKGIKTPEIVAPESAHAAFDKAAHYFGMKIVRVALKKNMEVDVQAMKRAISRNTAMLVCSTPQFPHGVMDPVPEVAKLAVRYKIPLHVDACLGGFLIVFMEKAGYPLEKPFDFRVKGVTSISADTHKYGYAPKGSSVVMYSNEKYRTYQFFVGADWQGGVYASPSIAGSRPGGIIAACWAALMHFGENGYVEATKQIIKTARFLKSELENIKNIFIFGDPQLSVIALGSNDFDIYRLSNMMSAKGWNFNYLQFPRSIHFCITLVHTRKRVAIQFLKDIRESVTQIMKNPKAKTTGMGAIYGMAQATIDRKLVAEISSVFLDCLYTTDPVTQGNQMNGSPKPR

mdx mice = experiment: EDL muscle myography in mdx mice; type: in vivo, mouse; conditions: THI IP twice-daily two weeks
Experimental: The effect of THI administration on muscle function and recovery in mdx mice was analyzed. The mice were injected intraperitoneally with THI in PBS or vehicle alone (PBS) twice-daily for two weeks. Total amount of THI delivered per day was 75 ug. Extensor digitorum longus (EDL) muscles were excised from the mice and equilibrated in ringer's solution with 95% O2/5% CO2 for a minimum of 15 minutes prior to stimulation. Myography was conducted using a DMT 820S myograph and data was recorded using PowerLab 4/30 acquisition system with LabChart Pro software v7.3.1 (both from ADI instruments, Colorado Springs, Colo.). Stimulations were conducted with a Grass Instrument S88X system (Grass Technologies, West Warwick, R.I.). Muscles were stimulated to establish optimal fiber length (Lf) and voltage at which maximum tetanic force was measured at 120 Hz within a 450 ms duration.
Specific force was calculated as previously described in Gregorevic P. et al. (Gregorevic P. et al., Muscle Nerve. 2004 September; 30(3):295-304, PMID#15318340) by normalizing to whole muscle cross-sectional area (CSA). CSA is the quotient of […] muscle mass over the optimal muscle length (Lo) which is defined as the product of muscle fiber length (Lf) with the fiber length ratio (0.44 for EDL) and mammalian muscle density (1.06).
Muscle recovery was measured after muscle was fatigued with stimulation over 6 minutes. […] Recovery was determined by examining muscle force at 5, 10, and 15 minutes after stimulation. […] Therefore, the administration of THI improved muscle recovery and function in dystrophic mice.
The effect of THI-oxime administration on muscle function and recovery in mdx mice was analyzed. The mice were injected intraperitoneally with THI-oxime (n=3) or PBS vehicle alone (n=4) twice-daily for two weeks and then analyzed between 1-4 days following the final day of injection. Total amount of THI-oxime delivered per day was 75 ug. Prior to euthanasia, the animals were anesthetized with 0.5 mg/g weight avertin diluted in PBS. EDL muscles were excised from the mice and equilibrated in ringer's solution (120 mM NaCl, 4.7 mM KCl, 3.15 mM MgCl2, 1.3 mM NaH2PO4, 25 mM NaHCO3, 11 mM Glucose, 1.25 mM CaCl2, pH 7.2) with 95% O2/5% CO2 for a minimum of 15 minutes prior to stimulation. All functional experiments were carried out with buffer solutions at 25° C. under constant oxygenation. Myography was conducted using a DMT 820S myograph and data was recorded using PowerLab 4/30 acquisition system with LabChart Pro software v7.3.1 (both from ADI instruments, Colorado Springs, Colo.). […] Muscles were stimulated to establish optimal fiber length (Lf) and voltage at which maximum tetanic force was measured at 120 Hz within a 450 ms duration. […]

[1] = tested on: plasma creatine kinase (CK) activity; experiment: Plasma creatine kinase assay in mdx mice; type: in vivo, mouse; conditions: 5-month-old mdx males, day 4 post CTX, vs vehicle
Experimental: The effects of THI in the dystrophic mdx mouse model were studied. […] THI was administered intraperitoneally (IP) to three groups of mdx mice. Right tibialis anterior (TA) and quadriceps muscles were uninjured, while left counterparts were injured using CTX, a well characterized model of acute injury where initial muscle destruction is followed by a rapid myogenic response. The mdx mice were injected with THI, or PBS as a vehicle control, immediately following injury with CTX 5 times during a 3-day period (FIG. 3a). In the first group (N=6, 5-month-old males) the mdx mice were sacrificed at day 4 to analyze the efficacy of the administration of THI for increasing S1P levels in spleen, CTX injured quadriceps, and uninjured quadriceps. The effects of THI administration on the plasma creatine kinase (CK) activity level was also measured.
Mdx mouse plasma samples were diluted 1:50 and total creatine kinsase activity was measured by an enzymatic rate method using a Beckman Coulter instrument. Relative levels were then normalized to body weight.

CC(=O)c1ncc([C@@H](O)[C@H](O)[C@H](O)CO)[nH]1 [THI, 1-[5-[(1R,2S,3R)-1,2,3,4-tetrahydroxybutyl]-1H-imidazol-2-yl]-ethanone]
S1P level in CTX injured quadriceps (S1P level): significantly increased | S1P level in spleen tissue (S1P level): significantly increased | SPL activity when administered to mice (SPL): inhibits SPL activity | maximum specific force of EDL muscle (mdx mice; 75 ug per day, vehicle 95.45): 134.29 KN/m^2 | muscle fatigue with stimulation over 6 minutes (mdx mice; vs vehicle): fatigued at similar rates | muscle recovery (force at 5, 10 and 15 minutes after stimulation) (mdx mice; vs vehicle): improved recovery | plasma CK levels [1]: reduced
